Literature values, collected in US20210361600A1, “METHODS FOR INDUCING CHONDROGENESIS” (THE SCRIPPS RESEARCH INSTITUTE, priority 2017, published 2021).

How the values were obtained:
[1] = tested on: FLNA FC-1 fragment; settings: previously validated with BKA affinity probe; cited from earlier work
[2] = tested on: CBFβ; settings: previously demonstrated; cited from earlier work

O=C(O)c1ccccc1C(=O)Nc1ccc(-c2ccccc2)cc1 [KGN, kartogenin]
binding to FC-1 fragment of FLNA [1]: directly mediate the binding
nuclear localization of CBFβ [2]: increase the nuclear localization of CBFβ
